Test results taken from EP2650284A1, “Heterocyclic derivatives as metabotropic glutamate receptor modulators” (Merz Pharma GmbH & Co. KGaA, priority 2012, dated 2013).
pEC50, pIC50: −log10 of the molar value. Like-named read-outs stand apart in the source and are kept apart here.

Legend:
[1] = target: T1, human metabotropic glutamate receptor mGluR5 (Homo sapiens, UniProt P41594); test: Cytosolic calcium studies with stably transfected cells (h5CHO), functional assay of mGluR5 receptors; type: cell-based; conditions: for h left shift / pIC50: h5CHO cells; for pEC50: positive modulators, h5CHO cells preincubated with modulator, stimulated by an EC20 concentration of L-glutamate, read-out: hEC50; for pIC50: Table A2, negative modulation, compounds added 5 minutes before L-quisqualic acid (~80% of the maximal signal), read-out: hIC50
T1 construct: expressed in transfected cells; host or cells: CHO-K1 (h5CHO), IPTG-inducible
T1 sequence (P41594 21-1212): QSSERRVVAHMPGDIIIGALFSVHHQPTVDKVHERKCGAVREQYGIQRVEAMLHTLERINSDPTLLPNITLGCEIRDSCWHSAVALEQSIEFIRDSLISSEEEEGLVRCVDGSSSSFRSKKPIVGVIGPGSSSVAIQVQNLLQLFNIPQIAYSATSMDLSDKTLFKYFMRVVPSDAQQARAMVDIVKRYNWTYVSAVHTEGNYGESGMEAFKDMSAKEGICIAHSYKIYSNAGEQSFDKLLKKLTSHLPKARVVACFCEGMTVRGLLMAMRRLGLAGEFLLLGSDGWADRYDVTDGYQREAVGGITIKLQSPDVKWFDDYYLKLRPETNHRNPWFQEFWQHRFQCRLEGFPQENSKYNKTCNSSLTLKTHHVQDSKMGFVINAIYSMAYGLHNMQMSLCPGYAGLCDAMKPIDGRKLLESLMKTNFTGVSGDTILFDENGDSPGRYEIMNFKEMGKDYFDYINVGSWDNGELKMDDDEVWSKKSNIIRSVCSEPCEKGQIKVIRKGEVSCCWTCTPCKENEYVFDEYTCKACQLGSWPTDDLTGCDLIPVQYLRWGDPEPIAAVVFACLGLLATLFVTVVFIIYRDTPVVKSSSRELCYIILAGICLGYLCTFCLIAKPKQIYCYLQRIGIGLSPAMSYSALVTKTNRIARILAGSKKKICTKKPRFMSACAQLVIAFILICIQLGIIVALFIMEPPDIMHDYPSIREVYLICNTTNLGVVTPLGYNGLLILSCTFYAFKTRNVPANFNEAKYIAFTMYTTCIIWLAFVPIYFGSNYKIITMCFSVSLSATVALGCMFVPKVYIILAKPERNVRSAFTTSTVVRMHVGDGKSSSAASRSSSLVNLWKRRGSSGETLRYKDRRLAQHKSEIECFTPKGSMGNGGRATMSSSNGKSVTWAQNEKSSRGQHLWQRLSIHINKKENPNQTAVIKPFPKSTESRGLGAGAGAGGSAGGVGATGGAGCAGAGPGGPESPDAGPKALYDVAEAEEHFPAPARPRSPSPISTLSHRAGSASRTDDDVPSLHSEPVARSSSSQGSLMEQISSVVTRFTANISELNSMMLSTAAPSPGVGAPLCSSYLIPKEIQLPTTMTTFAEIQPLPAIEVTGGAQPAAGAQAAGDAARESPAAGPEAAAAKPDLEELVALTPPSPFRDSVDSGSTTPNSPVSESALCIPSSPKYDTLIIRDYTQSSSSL
Procedure: Chinese hamster ovary cells (CHO-K1 cells), stably transfected for inducible expression of a human metabotropic glutamate receptor mGluR5 to form a cell line called h5CHO, are seeded into black clear bottom 96 well plates at a density of 35.000 cells per well. The standard growth medium used (Dulbecco's modified Eagle Medium, DMEM plus L-proline) contains the appropriate inducer isopropyl-β-D-thiogalactopyranosid (IPTG) to achieve optimal receptor expression. One day after seeding the growth medium is exchanged for reconstituted Ca-Kit (Molecular Devices, USA) and incubated for one hour. Ca-Kit is reconstituted in an assay buffer containing 20 mM HEPES pH 7.4, glutamic-pyruvate transaminase, pyridoxal phosphate and sodium pyruvate in Hank's balanced salt solution (HBBS). Agonistic compounds to the receptor elicit increases in cytosolic calcium which can be measured as increases in fluorescence signals by use of a fluorescence imaging plate reader (Molecular Devices). To analyze their potency to negatively modulate the Ca-response test compounds, dissolved in a final DMSO concentration of 0.5%, are added on-line 5 minutes before the agonist to the receptor (L-quisqualic acid at a concentration giving ~80% of the maximal signal). EC50 values for positive allosteric modulators were determined by stimulating the cells which have been preincubated the modulators by an EC20 concentration of L-glutamate.
(§1) The fluorescence signal increase after addition of agonist reflects the increase of cytosolic calcium. Inconsistencies in the amount of cells per well are normalised by using the spatial uniformity correction of the FLIPR operating software Screenworks. The mean of replicated temporal data (n=3-5) is calculated and used for graphical representation. For the evaluation of the pharmacology, the calcium changes in response to different concentrations of agonist or antagonist are determined using a maximum minus minimum (MaxMin) calculation.
(§2) All responses (RFU-values) are determined as percentage of control (= maximum response). EC50 and IC50 are calculated according the logistic equation using XLFit (IDBS, UK) or Prism 4.0 (GraphPad Software, USA). The compounds of the present invention have a potency (EC50 or IC50) within a range of about 0.5 nM to about 100 µM. The left shifts for positive or slient allosteric modulators (PAMs or SAMs, respectively) are determined by comparison of EC50 values from agonist dose response curves run in the presence of 10 µM modulator or vehicle (Vanejevs et al., J. Med. Chem., 2008, 51, 634-647).

mGluR5 receptors = target: T2, mGluR5 receptors (Rattus norvegicus, UniProt P31424); test: Cytosolic calcium studies with astrocytes (FLIPR), functional assay of mGluR5 receptors; type: cell-based; conditions: for pIC50: Table A2, pre-incubated 10 minutes before L-quisqualate (100 nM), read-out: rIC50
T2 construct: Primary astrocyte cultures are prepared from cortices of newborn rats; endogenous in cells; host or cells: primary cortical astrocytes from Sprague-Dawley rat pups (2-4 d old)
T2 sequence (P31424 21-1203): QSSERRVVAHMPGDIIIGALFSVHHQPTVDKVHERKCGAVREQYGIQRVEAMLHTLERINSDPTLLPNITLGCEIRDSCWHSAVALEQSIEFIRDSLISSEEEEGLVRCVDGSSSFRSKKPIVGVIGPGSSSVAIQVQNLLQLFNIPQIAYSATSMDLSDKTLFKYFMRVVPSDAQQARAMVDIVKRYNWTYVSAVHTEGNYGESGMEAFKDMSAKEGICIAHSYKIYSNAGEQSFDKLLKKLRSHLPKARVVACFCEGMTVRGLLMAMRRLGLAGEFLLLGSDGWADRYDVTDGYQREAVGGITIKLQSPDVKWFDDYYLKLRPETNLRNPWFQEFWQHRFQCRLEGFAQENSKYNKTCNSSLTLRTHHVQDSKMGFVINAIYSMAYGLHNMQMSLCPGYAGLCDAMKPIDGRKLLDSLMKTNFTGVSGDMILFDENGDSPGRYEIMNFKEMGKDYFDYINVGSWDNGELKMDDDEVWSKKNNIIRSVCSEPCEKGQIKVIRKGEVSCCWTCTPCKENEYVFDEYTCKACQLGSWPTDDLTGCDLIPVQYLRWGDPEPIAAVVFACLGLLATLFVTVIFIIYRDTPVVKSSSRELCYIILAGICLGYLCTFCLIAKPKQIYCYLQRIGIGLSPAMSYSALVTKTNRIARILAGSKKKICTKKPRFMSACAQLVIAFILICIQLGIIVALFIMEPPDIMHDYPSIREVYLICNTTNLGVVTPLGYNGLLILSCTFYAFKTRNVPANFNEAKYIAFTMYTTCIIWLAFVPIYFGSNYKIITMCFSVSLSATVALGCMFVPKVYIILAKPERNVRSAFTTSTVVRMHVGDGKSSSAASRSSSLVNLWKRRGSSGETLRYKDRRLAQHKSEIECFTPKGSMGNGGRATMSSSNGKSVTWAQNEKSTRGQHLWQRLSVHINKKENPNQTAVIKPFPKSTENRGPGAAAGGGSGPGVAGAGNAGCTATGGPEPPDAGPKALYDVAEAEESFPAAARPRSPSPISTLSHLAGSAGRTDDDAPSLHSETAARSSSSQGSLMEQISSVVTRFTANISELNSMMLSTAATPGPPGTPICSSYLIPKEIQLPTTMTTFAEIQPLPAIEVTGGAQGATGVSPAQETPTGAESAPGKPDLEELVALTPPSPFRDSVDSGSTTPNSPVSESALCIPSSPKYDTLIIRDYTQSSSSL
Procedure: Primary astrocyte cultures are prepared from cortices of newborn rats as described by Booher and Sensenbrenner (1972, Neurobiology 2(3):97-105). Briefly, Sprague-Dawley rat pups (2 - 4 d old) are decapitated and neocortices are dissected, disintegrated with a nylon filter (pore size 80 µm) and carefully triturated. The cell suspension is plated on poly-D-lysine pre-coated flasks (Costar, Netherlands) and cultivated in Dulbecco's Modified Eagle's Medium (DMEM, Invitrogen, Germany) supplemented with 10% foetal calf serum (FCS, Sigma, Germany), 4 mM glutamine and 50 µg/ml gentamycin (both Biochrom, Germany) at 37°C in a humidified atmosphere of 5% CO2/ 95% air for 7 days with exchanging the medium at day 2 and 6.
After 7 days in vitro (DIV), cells are shaken overnight at 250 rpm to remove oligodendrocytes and microglia. The next day, astrocytes are rinsed twice with CMF-PBS (calcium- and magnesium-free phosphate buffered saline, Biochrom, Germany), trypsinized and subplated on poly-D-lysine pre-coated 96-well plates (Greiner, Germany) at a density of 40,000 cells/well. 24 h after establishing the secondary culture the astrocytes are rinsed with PBS^++ (phosphate buffered saline, Biochrom, Germany) and fed with astrocyte-defined medium (ADM) consisting of DMEM containing 1x G5-supplement (Invitrogen, Germany), 0.5 µg/ml heparan sulfate, and 1.5 µg/ml fibronectin (both Sigma, Germany) (Miller et al., (1993) Brain Res. 618(1):175-8). 3 days later the medium is exchanged and the cells incubated for another 2-3 days, so that at the time of experiments astrocytes are 14-15 DIV.
The increase of cytosolic calcium after stimulation with the mGluR5 agonist L-quisqualate is measured using a fluorometric imaging plate reader (FLIPR) and the Ca-Kit (both Molecular Devices). Prior to addition of agonist or antagonist the medium is aspirated and cells are loaded for 2 h at RT with 150 µl of loading buffer consisting of Ca-sensitive dye reconstituted in sodium chloride (123 mM), potassium chloride (5.4 mM), magnesium chloride (0.8 mM), calcium chloride (1.8 mM), D-glucose (15 mM), and HEPES (20 mM), pH 7.3. Subsequently, plates are transferred to FLIPR to detect calcium increase with the addition of L-quisqualate (100 nM) measured as relative fluorescence units (RFU). If antagonists are tested, these compounds are pre-incubated for 10 minutes at RT before addition of the respective agonist.
For positive modulators, concentration-response curves for quisqualate are performed in the presence and absence of 10 µM modulator to determine the extent of potentiation / agonist potency increase. Thereafter, concentration-response curves for the positive modulator are performed in the presence of a fixed concentration of quisqualate showing the biggest window for potentiation (normally 10-30 nM).
as §1, §2

[2] = Table A1, left shift of agonist EC50, dose response curves in the presence of 10 µM modulator or vehicle
[3] = Table A1, left shift of quisqualate EC50 in the presence and absence of 10 µM modulator
[4] = Table A1, positive modulators, fixed concentration of quisqualate (normally 10-30 nM), read-out: rEC50
[5] = Table A3 (SAMs / very weak PAMs), agonist EC50 shift with 10 µM modulator or vehicle
[6] = Table A3 (SAMs / very weak PAMs), quisqualate EC50 shift with 10 µM modulator
[7] = Table A3, given in brackets where Ki is n.d., read-out: r EC50

Compound | h left shift [1, 2] | r left shift (mGluR5 receptors; [3]) | pEC50 (mGluR5 receptors; [4]) | h left shift [1, 5] | r left shift (mGluR5 receptors; [6]) | pEC50 (mGluR5 receptors; [7]) | pEC50 ([1]; Table A1) | pIC50 [1] | pIC50 (mGluR5 receptors)
O=C1OC2(CCCc3ncc(C#Cc4ccccc4)cc32)CN1C1CC1 (racemic) [Example 74, (rac)-3-Cyclopropyl-3'-(phenylethynyl)-7',8'-dihydro-6'H-spiro[oxazolidine-5,5'-quinolin]-2-one] | 1.6-fold | 1.5-fold | 8.00 | – | – | – | – | – | –
O=C1OC2(CCCc3ncc(C#Cc4cccc(F)c4)cc32)CN1C1CC1 (racemic) [Example 76, (rac)-3-Cyclopropyl-3'-((3-fluorophenyl)ethynyl)-7',8'-dihydro-6'H-spiro[oxazolidine-5,5'-quinolin]-2-one] | – | – | – | 1.6-fold | 1.4-fold | 7.30 | – | – | –
COC(=O)N1CC2Cc3cc(C#Cc4ccccc4)cnc3C2C1 (racemic) [Example 79, (rac)-Methyl 3-(phenylethynyl)-5a,6,8,8a-tetrahydropyrrolo[3',4':4,5]cyclopenta[1,2-b]pyridine-7(5H)-carboxylate] | 2.6-fold | 4.1-fold | 6.78 | – | – | – | 7.19 | – | –
COC(=O)N1CC[C@H]2CCc3cc(C#Cc4ccccc4)cnc3[C@H]21 (racemic) [Example 80, (rac)-cis-Methyl 7-(phenylethynyl)-2,3,3a,4,5,9b-hexahydro-1H-pyrrolo[3,2-h]quinoline-1-carboxylate] | – | – | – | 1.5-fold | 1.8-fold | 7.45 | – | – | –
CCCN1CC2(CCCc3ncc(C#Cc4ccccc4)cc32)OC1=O (racemic) [Example 82, (rac)-3'-(Phenylethynyl)-3-propyl-7',8'-dihydro-6'H-spiro[oxazolidine-5,5'-quinolin]-2-one] | 1.9-fold | 1.6-fold | 6.63 | – | – | – | 6.14 | – | –
CCCN1CCO[C@@H]2c3cc(C#Cc4ccccc4)cnc3CC[C@@H]21 (single isomer, unassigned) [Example 16, cis-9-(Phenylethynyl)-4-propyl-3,4,4a,5,6,10b-hexahydro-2H-[1,4]oxazino[2,3-f]quinoline] | 3.8-fold | 6.0-fold | 6.34 | – | – | – | 7.33 | – | –
Cn1ncc2c1-c1cc(C#Cc3ccccc3)cnc1CC2 [Example 28, 1-Methyl-8-(phenylethynyl)-4,5-dihydro-1H-pyrazolo[3,4-f]quinoline] | 2.4-fold | 2.2-fold | – | – | – | – | 7.72 | – | –
COC(=O)N1CC2CCc3ncc(C#Cc4ccccc4)cc3C2C1 (stereo not shown) [Example 30, Methyl 8-(phenylethynyl)-3,3a,4,5-tetrahydro-1H-pyrrolo[3,4-f]quinoline-2(9bH)-carboxylate] | 2.5-fold | 3.0-fold | 6.59 | – | – | – | 6.46 | – | –
COC(=O)N1CC2CCc3ncc(C#Cc4cccc(F)c4)cc3C2C1 (stereo not shown) [Example 31, Methyl 8-((3-fluorophenyl)ethynyl)-3,3a,4,5-tetrahydro-1H-pyrrolo[3,4-f]quinoline-2(9bH)-carboxylate] | 2.6-fold | 1.5-fold | 6.58 | – | – | – | 6.48 | – | –
CC(C)(C)C(=O)N1CCc2ncc(C#Cc3ccccc3)cc2C1 [Example 34, 2,2-Dimethyl-1-(3-(phenylethynyl)-7,8-dihydro-1,6-naphthyridin-6(5H)-yl)propan-1-one] | 2.3-fold | 2.8-fold | 7.17 | – | – | – | 6.77 | – | –
CC1(C(=O)N2CCc3ncc(C#Cc4ccccc4)cc3C2)COC1 [Example 36, (3-Methyloxetan-3-yl)(3-(phenylethynyl)-7,8-dihydro-1,6-naphthyridin-6(5H)-yl)methanone] | 2.4-fold | 2.7-fold | 5.39 | – | – | – | 6.04 | – | –
O=S(=O)(C1CC1)N1CCc2ncc(C#Cc3ccccc3)cc2C1 [Example 38, 6-(Cyclopropylsulfonyl)-3-(phenylethynyl)-5,6,7,8-tetrahydro-1,6-naphthyridine] | 1.7-fold | 2.5-fold | 6.32 | – | – | – | – | – | –
CC(C)COC(=O)N1CCc2ncc(C#Cc3ccccc3)cc2C1 [Example 41, Isobutyl 3-(phenylethynyl)-7,8-dihydro-1,6-naphthyridine-6(5H)-carboxylate] | 2.2-fold | 1.2-fold | 8.36 | – | – | – | 6.84 | – | –
CC(C)(C)OC(=O)N1CCc2ncc(C#Cc3ccccc3)cc2C1 [Example 42, tert-Butyl 3-(phenylethynyl)-7,8-dihydro-1,6-naphthyridine-6(5H)-carboxylate] | 3.1-fold | 1.9-fold | 6.88 | – | – | – | 6.55 | – | –
O=C(Oc1ccccc1)N1CCc2ncc(C#Cc3ccccc3)cc2C1 [Example 43, Phenyl 3-(phenylethynyl)-7,8-dihydro-1,6-naphthyridine-6(5H)-carboxylate] | 2.4-fold | – | 7.42 | – | – | – | 6.42 | – | –
CN(C)C(=O)N1CCc2ncc(C#Cc3cccc(F)c3)cc2C1 [Example 45, 3-((3-Fluorophenyl)ethynyl)-N,N-dimethyl-7,8-dihydro-1,6-naphthyridine-6(5H)-carboxamide] | – | – | – | – | – | – | – | 6.94 | 7.25
CN(C)C(=O)N1CCc2ncc(C#Cc3cccc(C#N)c3)cc2C1 [Example 46, 3-((3-Cyanophenyl)ethynyl)-N,N-dimethyl-7,8-dihydro-1,6-naphthyridine-6(5H)-carboxamide] | – | – | – | – | – | – | – | 7.29 | 7.68
O=C(N1CCc2ncc(C#Cc3ccccc3)cc2C1)N(CC(F)(F)F)CC(F)(F)F [Example 49, 3-(Phenylethynyl)-N,N-bis(2,2,2-trifluoroethyl)-7,8-dihydro-1,6-naphthyridine-6(5H)-carboxamide] | 1.7-fold | 2.3-fold | 7.93 | – | – | – | – | – | –
